Experimental data as given in US20050065185A1, “Heterocyclylalkoxy-, -alkylthio- and -alkylaminobenzazole derivatives as 5-hydroxytryptamine-6 ligands” (Wyeth, priority 2001, published 2005).
Counter-ions that a name gives are not always drawn.

tested on: not given; assay: not given

melting point | SMILES
204 to 206 °C | O=S(=O)(c1ccc(Cl)s1)n1ccc2c(OC[C@@H]3CCCN3)cccc21 (as salt: hydrochloride) [Example 4, 1-[(5-chlorothien-2-yl)sulfonyl]-4-[(2S)-pyrrolidin-2-ylmethoxy]-1H-indole]
153 to 155 °C | O=S(=O)(c1ccccc1F)n1ccc2c(OC[C@@H]3CCCN3)cccc21 (as salt: hydrochloride) [Example 5, 1-[(2-fluorophenyl)sulfonyl)-4-[(2S)-pyrrolidin-2-ylmethoxy]-1H-indole]
160 to 162 °C | O=S(=O)(c1cccc(F)c1)n1ccc2c(OC[C@@H]3CCCN3)cccc21 (as salt: hydrochloride) [Example 6, 1-[(3-fluorophenyl)sulfonyl)-4-[(2S)-pyrrolidin-2-ylmethoxy]-1H-indole]
258 °C (dec.) | O=S(=O)(c1ccc(F)cc1)n1ccc2c(OC[C@@H]3CCCN3)cccc21 (as salt: hydrochloride) [Example 7, 1-[(4-fluorophenyl)sulfonyl)-4-[(2S)-pyrrolidin-2-ylmethoxy]-1H-indole]
115 °C (dec.) | COc1ccc(S(=O)(=O)n2ccc3c(OC[C@@H]4CCCN4)cccc32)cc1OC (as salt: hydrochloride) [Example 8, 1-[(3,4-dimethoxyphenyl)sulfonyl)-4-[(2S)-pyrrolidin-2-ylmethoxy]-1H-indole]
150 °C (dec.) | Nc1ccc(S(=O)(=O)n2ccc3c(OC[C@@H]4CCCN4)cccc32)cc1 (as salt: hydrochloride) [Example 9]
> 255 °C (dec.) | O=S(=O)(c1ccccc1Cl)n1ncc2c(OC[C@@H]3CCCN3)cccc21 (as salt: hydrochloride) [Example 17, 1-[(2-chlorophenyl)sulfonyl]-4-[(2S)-pyrrolidin-2-ylmethoxy]-1H-indazole]
145 to 148 °C | O=S(=O)(c1ccccc1F)n1ncc2c(OC[C@@H]3CCCN3)cccc21 (as salt: hydrochloride) [Example 18, 1-[(2-fluorophenyl)sulfonyl]-4-[(2S)-pyrrolidin-2-ylmethoxy]-1H-indazole]
195 °C | O=S(=O)(c1ccc(Cl)s1)n1ncc2c(OC[C@@H]3CCCN3)cccc21 (as salt: hydrochloride) [Example 19, 1-[(5-chlorothien-2-yl)sulfonyl]-4-[(2S)-pyrrolidin-2-ylmethoxy]-1H-indazole]
150 to 155 °C | Nc1ccc(S(=O)(=O)n2ncc3c(OC[C@@H]4CCCN4)cccc32)cc1 (as salt: hydrochloride) [Example 20, 4-({4-[(2S)-pyrrolidin-2-ylmethoxy}-1H-indazol-1-yl}sulfonyl)aniline]
220 °C (dec.) | Nc1ccc(S(=O)(=O)n2ncc3c(OC[C@@H]4CCCN4)cccc32)cc1Cl (as salt: hydrochloride) [Example 21, 2-chloro-4-({4-[(2S)-pyrrolidin-2-ylmethoxy]-1H-indazol-1-yl}sulfonyl)aniline]
217 to 218 °C | O=S(=O)(c1cccc2cccnc12)n1ncc2c(OC[C@@H]3CCCN3)cccc21 [Example 16, 8-({4-[(2S)-pyrrolidin-2-ylmethoxy]-1H-indazol-1-yl}sulfonyl)quinoline]

target: T1, human cloned 5-HT6 receptors (Homo sapiens, UniProt P50406); assay: 5-HT6 binding affinity, [3H]-LSD displacement on membranes of Hela cells expressing human cloned 5-HT6 receptors
T1 construct: expressed in transfected cells; host or cells: HeLa cells
T1 sequence (P50406 whole entry): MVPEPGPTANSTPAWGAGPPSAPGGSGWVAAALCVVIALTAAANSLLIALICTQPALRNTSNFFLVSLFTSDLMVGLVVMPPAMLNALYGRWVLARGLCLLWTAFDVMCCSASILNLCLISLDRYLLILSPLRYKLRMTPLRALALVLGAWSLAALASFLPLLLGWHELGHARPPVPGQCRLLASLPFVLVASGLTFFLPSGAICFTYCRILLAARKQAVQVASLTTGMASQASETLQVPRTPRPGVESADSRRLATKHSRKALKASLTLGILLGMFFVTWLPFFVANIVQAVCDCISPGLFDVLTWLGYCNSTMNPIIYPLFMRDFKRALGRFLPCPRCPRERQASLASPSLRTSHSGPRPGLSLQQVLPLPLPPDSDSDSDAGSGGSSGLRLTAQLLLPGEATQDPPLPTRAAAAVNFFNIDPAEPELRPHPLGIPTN
Procedure: The affinity of test compounds for the serotonin 5-HT6 receptor is evaluated in the following manner. Cultured Hela cells expressing human cloned 5-HT6 receptors are harvested and centrifuged at low speed (1,000×g) for 10.0 min to remove the culture media. The harvested cells are suspended in half volume of fresh physiological phosphate buffered saline solution and recentrifuged at the same speed. This operation is repeated. The collected cells are then homogenized in ten volumes of 50 mM Tris.HCl (pH 7.4) and 0.5 mM EDTA. The homogenate is centrifuged at 40,000×g for 30.0 min and the precipitate is collected. The obtained pellet is resuspended in 10 volumes of Tris.HCl buffer and recentrifuged at the same speed. The final pellet is suspended in a small volume of Tris.HCl buffer and the tissue protein content is determined in aliquots of 10-25 μl volumes. Bovine Serum Albumin is used as the standard in the protein determination according to the method described in Lowry et al., J. Biol. Chem., 193:265 (1951). The volume of the suspended cell membranes is adjusted to give a tissue protein concentration of 1.0 mg/ml of suspension. The prepared membrane suspension (10 times concentrated) is aliquoted in 1.0 ml volumes and stored at −70° C. until used in subsequent binding experiments.
The reaction is allowed to proceed in the dark for 120 min at room temperature, at which time, the bound ligand-receptor complex is filtered off on a 96 well unifilter with a Packard Filtermate® 196 Harvester. The bound complex caught on the filter disk is allowed to air dry and the radioactivity is measured in a Packard TopCount® equipped with six photomultiplier detectors, after the addition of 40.0 μl Microscint®-20 scintillant to each shallow well. The unifilter plate is heat-sealed and counted in a PackardTopCount® with a tritium efficiency of 31.0%.
Binding in the presence of varying concentrations of test compound is expressed as a percentage of specific binding in the absence of test compound. The results are plotted as log % bound versus log concentration of test compound. […] A linear regression line of data points is plotted, from which the IC50 value is determined and the Ki value is determined based upon the following equation: Ki=IC50/(1+L/KD) where L is the concentration of the radioactive ligand used and KD is the dissociation constant of the ligand for the receptor, both expressed in nM.

Ki | SMILES
6 nM | O=S(=O)(c1ccccc1)n1ccc2c(OC[C@@H]3CCCN3)cccc21 [Example 3, 1-(Phenylsulfonyl)-4-[(2S)-pyrrolidin-2-ylmethoxy]-1H-indole hydrochloride]
7 nM | O=S(=O)(c1ccc(Cl)s1)n1ccc2c(OC[C@@H]3CCCN3)cccc21 [Example 4, 1-[(5-chlorothien-2-yl)sulfonyl]-4-[(2S)-pyrrolidin-2-ylmethoxy]-1H-indole]
2 nM | O=S(=O)(c1ccccc1F)n1ccc2c(OC[C@@H]3CCCN3)cccc21 [Example 5, 1-[(2-fluorophenyl)sulfonyl)-4-[(2S)-pyrrolidin-2-ylmethoxy]-1H-indole]
8 nM | O=S(=O)(c1cccc(F)c1)n1ccc2c(OC[C@@H]3CCCN3)cccc21 [Example 6, 1-[(3-fluorophenyl)sulfonyl)-4-[(2S)-pyrrolidin-2-ylmethoxy]-1H-indole]
31 nM | O=S(=O)(c1ccc(F)cc1)n1ccc2c(OC[C@@H]3CCCN3)cccc21 [Example 7, 1-[(4-fluorophenyl)sulfonyl)-4-[(2S)-pyrrolidin-2-ylmethoxy]-1H-indole]
95 nM | COc1ccc(S(=O)(=O)n2ccc3c(OC[C@@H]4CCCN4)cccc32)cc1OC [Example 8, 1-[(3,4-dimethoxyphenyl)sulfonyl)-4-[(2S)-pyrrolidin-2-ylmethoxy]-1H-indole]
1 nM | Nc1ccc(S(=O)(=O)n2ccc3c(OC[C@@H]4CCCN4)cccc32)cc1 [Example 9]
106 nM | O=S(=O)(c1ccccc1)n1ccc2c(OC[C@H]3CCCN3)cccc21 [Example 11, 1-(Phenylsulfonyl)-4-[(2R)-]pyrrolidin-2-ylmethoxy]-1H-indole hydrochloride]
7 nM | O=S(=O)(c1ccccc1)n1ncc2c(OC[C@@H]3CCCN3)cccc21 [Example 15, 1-(Phenylsulfonyl)-4-[(2S)-pyrrolidin-2-ylmethoxy]-1H-indazole trifluoroacetic acid salt]
85 nM | O=S(=O)(c1cccc2cccnc12)n1ncc2c(OC[C@@H]3CCCN3)cccc21 [Example 16, 8-({4-[(2S)-pyrrolidin-2-ylmethoxy]-1H-indazol-1-yl}sulfonyl)quinoline]
5 nM | O=S(=O)(c1ccccc1Cl)n1ncc2c(OC[C@@H]3CCCN3)cccc21 [Example 17, 1-[(2-chlorophenyl)sulfonyl]-4-[(2S)-pyrrolidin-2-ylmethoxy]-1H-indazole]
8 nM | O=S(=O)(c1ccccc1F)n1ncc2c(OC[C@@H]3CCCN3)cccc21 [Example 18, 1-[(2-fluorophenyl)sulfonyl]-4-[(2S)-pyrrolidin-2-ylmethoxy]-1H-indazole]
5 nM | O=S(=O)(c1ccc(Cl)s1)n1ncc2c(OC[C@@H]3CCCN3)cccc21 [Example 19, 1-[(5-chlorothien-2-yl)sulfonyl]-4-[(2S)-pyrrolidin-2-ylmethoxy]-1H-indazole]
9 nM | Nc1ccc(S(=O)(=O)n2ncc3c(OC[C@@H]4CCCN4)cccc32)cc1 [Example 20, 4-({4-[(2S)-pyrrolidin-2-ylmethoxy}-1H-indazol-1-yl}sulfonyl)aniline]
16 nM | Nc1ccc(S(=O)(=O)n2ncc3c(OC[C@@H]4CCCN4)cccc32)cc1Cl [Example 21, 2-chloro-4-({4-[(2S)-pyrrolidin-2-ylmethoxy]-1H-indazol-1-yl}sulfonyl)aniline]
